Measurements taken from US10543212B2, “Substituted amines for treating cardiac diseases” (Cardurion Pharmaceuticals, LLC, priority 2017, dated 2020).
Read-outs that look alike come from different tables or passages of the source.

Experiments:
[1] = tested on: phosphorylation of CaMKII-specific site of phospholamban (Thr17, PLN) in the heart; experiment: In vivo cardiac CaMKII inhibition (P-PLN Thr17 in rat left ventricle, Western blotting); settings: po, male SD rat left ventricle, vs vehicle-treated group, read-out: Reduction rate of P-PLN; for inhibition in vivo at 30 mg/kg: 30 mg/kg p.o.
Description: To evaluate potency of test compounds to inhibit cardiac CaMKII kinase in vivo, phosphorylation levels of CaMKII-specific sites of phospholamban (Thr17, PLN) were measured in the heart of rats administered with test compounds at various doses.
Test compounds were suspended in 0.5% [w/v] methylcellulose/water solution and administered (10 or 30 mg/kg) to male CD (SD) IGS rat (6-8 weeks old, n=4) by the p.o. route (5 mL/kg). At 2-4 hours after the administration, rats were sacrificed and the hearts were harvested. After washing the isolated hearts with ice-cold saline, connective tissues were removed on ice, and the isolated left ventricle were frozen into liquid nitrogen gas and stored at −80° C.
The left ventricle samples were homogenized in RIPA-buffer containing phosphatase inhibitors and protease inhibitors. Samples were analyzed by Western blotting using anti-P-PLN (Thr17, Santa Cruz Biotechnology, sc-17024-R) antibody. The band intensities were quantified using an imaging system and were normalized relative to the vehicle-treated group.

[2] = biological target: T1, Full-length, GST-tagged, human CaMKIIδ (Homo sapiens, UniProt Q13557); experiment: CaMKIIδ binding assay (TR-FRET with BODIPY-labeled probe ligand)
T1 construct: Full-Length, Glutathione-S-Transferase(GST)-Tagged, Human CaMKIIδ was purchased from Carna Biosciences; purchased Carna Biosciences 02-111
T1 sequence (Q13557 1-478 isoform Q13557-12): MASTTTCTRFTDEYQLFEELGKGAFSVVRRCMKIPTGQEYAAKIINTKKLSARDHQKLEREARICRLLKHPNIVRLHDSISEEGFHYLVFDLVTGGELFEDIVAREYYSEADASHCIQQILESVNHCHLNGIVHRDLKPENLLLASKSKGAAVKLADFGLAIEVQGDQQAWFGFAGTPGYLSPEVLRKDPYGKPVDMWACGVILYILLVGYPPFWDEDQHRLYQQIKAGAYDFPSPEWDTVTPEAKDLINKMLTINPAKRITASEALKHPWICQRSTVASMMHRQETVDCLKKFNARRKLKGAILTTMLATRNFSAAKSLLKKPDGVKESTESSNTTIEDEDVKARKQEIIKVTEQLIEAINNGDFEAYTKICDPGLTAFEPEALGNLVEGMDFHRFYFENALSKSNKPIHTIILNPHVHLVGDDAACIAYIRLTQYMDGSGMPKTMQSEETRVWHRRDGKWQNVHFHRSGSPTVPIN
Outline: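 Compounds were tested as 4-fold, eight-point series for 1 hr at room temperature, and IC50 was obtained by logistic fitting against a 3 μM parent-compound control. Signal came from displacement of a 300 nM BODIPY ligand from 0.5 nM GST-CaMKIIδ, detected via Tb-anti-GST in calmodulin/Ca2+ (pH 7.6).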

[3] = Table 2, CaMKIIδ binding assay, activity given as class A/B/C
[4] = Table 2, activity class for CaMKIIδ
[5] = CaMKIIδ binding assay, activity class per Table 2

Question: Which inhibition in vivo at 30 mg/kg ([1]; 2 hr after administration) does the source give for `C[C@@H](Cn1cnnn1)Oc1cc(-c2cnc(Nc3cn(C4CC5(C4)CN(C4CCOCC4)C5)nc3OCC(F)(F)F)nc2)ccc1Cl` [Example 795, (S)-5-(3-((1-(1H-tetrazol-1-yl)propan-2-yl)oxy)-4-chlorophenyl)-N-(1-(2-(tetrahydro-2H-pyran-4-yl)-2-azaspiro[3.3]heptan-6-yl)-3-(2,2,2-trifluoroethoxy)-1H-pyrazol-4-yl)pyrimidin-2-amine] here?
Answer: Its inhibition in vivo at 30 mg/kg is over 50%.

Question: What about the IC50 [2, 3] of the same molecule?
Answer: The IC50 was under 10 nM.

Question: How did the inhibition in vivo at 30 mg/kg ([1]; 4 hr after administration) turn out when `C[C@@H](Cn1cnnn1)Oc1cc(-c2cnc(Nc3cn(C4CC5(C4)CN(C4CCOCC4)C5)nc3C(F)(F)F)nc2)ccc1Cl` [Example 831, (S)-5-(3-((1-(1H-tetrazol-1-yl)propan-2-yl)oxy)-4-chlorophenyl)-N-(1-(2-(tetrahydro-2H-pyran-4-yl)-2-azaspiro[3.3]heptan-6-yl)-3-(trifluoromethyl)-1H-pyrazol-4-yl)pyrimidin-2-amine] was run?
Answer: Its inhibition in vivo at 30 mg/kg is over 50%.

Question: What about the IC50 [2, 3] of the same molecule?
Answer: The IC50 was under 10 nM.

Question: Which inhibition in vivo at 10 mg/kg ([1]; 10 mg/kg p.o., 4 hr after administration) does the source give for `CC(C)c1nn([C@H]2CC[C@H](N3CCOCC3)CC2)cc1Nc1ncc(-c2ccc(Cl)c(O[C@@H](C)Cn3cnnn3)c2)cn1` [Example 843, 5-(3-(((S)-1-(1H-tetrazol-1-yl)propan-2-yl)oxy)-4-chlorophenyl)-N-(3-isopropyl-1-(trans-4-morpholinocyclohexyl)-1H-pyrazol-4-yl)pyrimidin-2-amine] here?
Answer: Its inhibition in vivo at 10 mg/kg is over 50%.

Question: What about the IC50 [2, 3] of the same molecule?
Answer: Its IC50 is under 10 nM.

Question: `C[C@@H](Cn1cnnn1)Oc1cc(-c2cnc(Nc3cn([C@H]4CC[C@H](N5CCOCC5)CC4)nc3C(F)(F)F)nc2)ccc1Cl` [Example 695, 5-(3-(((S)-1-(1H-tetrazol-1-yl)propan-2-yl)oxy)-4-chlorophenyl)-N-(1-(trans-4-morpholinocyclohexyl)-3-(trifluoromethyl)-1H-pyrazol-4-yl)pyrimidin-2-amine] was tested. Which inhibition in vivo at 30 mg/kg ([1]; 2 hr after administration) did it give?
Answer: Its inhibition in vivo at 30 mg/kg is over 50%.

Question: And the IC50 [2, 4]?
Answer: The IC50 was under 10 nM.

Question: With `C[C@@H](Cn1cnnn1)Oc1cc(-c2cnc(Nc3cn([C@H]4CC[C@H](N5CCOCC5)CC4)nc3OCC(F)(F)F)nc2)ccc1Cl` [Example 772, 5-(3-(((S)-1-(1H-tetrazol-1-yl)propan-2-yl)oxy)-4-chlorophenyl)-N-(1-(trans-4-morpholinocyclohexyl)-3-(2,2,2-trifluoroethoxy)-1H-pyrazol-4-yl)pyrimidin-2-amine] as the molecule, how does the inhibition in vivo at 30 mg/kg ([1]; 2 hr after administration) read?
Answer: The inhibition in vivo at 30 mg/kg was over 50%.

Question: What about the IC50 [2, 3] of the same molecule?
Answer: The IC50 was under 10 nM.

Question: `CC(=O)OC(C)(C)CN1CC2(CC(n3cc(Nc4ncc(-c5ccc(Cl)c(O[C@@H](C)Cn6cnnn6)c5)cn4)c(OCC(F)(F)F)n3)C2)C1` [Example 951, 1-[6-(4-{[5-(4-chloro-3-{[(2S)-1-(1H-tetrazol-1-yl)propan-2-yl]oxy}phenyl)pyrimidin-2-yl]amino}-3-(2,2,2-trifluoroethoxy)-1H-pyrazol-1-yl)-2-azaspiro[3.3]heptan-2-yl]-2-methylpropan-2-yl acetate] was tested. Which inhibition in vivo at 30 mg/kg ([1]; 4 hr after administration) did it give?
Answer: Its inhibition in vivo at 30 mg/kg is over 50%.

Question: And the IC50 [2, 5]?
Answer: Its IC50 is under 10 nM.

Question: `C[C@@H](Cn1cnnn1)Oc1cc(-c2cnc(Nc3cn(C4CCN(C5CCOCC5)CC4)nc3C(F)(F)F)nc2)ccc1Cl` [Example 484, (S)-5-(3-((1-(1H-tetrazol-1-yl)propan-2-yl)oxy)-4-chlorophenyl)-N-(1-(1-(tetrahydro-2H-pyran-4-yl)piperidin-4-yl)-3-(trifluoromethyl)-1H-pyrazol-4-yl)pyrimidin-2-amine] was tested. Which inhibition in vivo at 30 mg/kg ([1]; 2 hr after administration) did it give?
Answer: The inhibition in vivo at 30 mg/kg was over 50%.

Question: And the IC50 ([2]; CaMKIIδ binding assay, results of Table 2)?
Answer: The IC50 was under 10 nM.

Question: With `C[C@@H](Cn1cnnn1)Oc1cc(-c2cnc(Nc3cn(C4CC5(C4)CN(CC(C)(C)O)C5)nc3OCC(F)(F)F)nc2)ccc1Cl` [Example 946, (S)-1-(6-(4-((5-(3-((1-(1H-tetrazol-1-yl)propan-2-yl)oxy)-4-chlorophenyl)pyrimidin-2-yl)amino)-3-(2,2,2-trifluoroethoxy)-1H-pyrazol-1-yl)-2-azaspiro[3.3]heptan-2-yl)-2-methylpropan-2-ol] as the molecule, how does the inhibition in vivo at 30 mg/kg ([1]; 4 hr after administration) read?
Answer: Its inhibition in vivo at 30 mg/kg is over 50%.

Question: What about the IC50 [2, 5] of the same molecule?
Answer: Its IC50 is under 10 nM.

Question: For `C[C@@H](Cn1cnnn1)Oc1cc(-c2cnc(Nc3cn(C4CCN(C5CCOCC5)CC4)nc3OCC(F)(F)F)nc2)ccc1Cl` [Example 677, (S)-5-(3-((1-(1H-tetrazol-1-yl)propan-2-yl)oxy)-4-chlorophenyl)-N-(1-(1-(tetrahydro-2H-pyran-4-yl)piperidin-4-yl)-3-(2,2,2-trifluoroethoxy)-1H-pyrazol-4-yl)pyrimidin-2-amine], which inhibition in vivo at 30 mg/kg ([1]; 2 hr after administration) is on record?
Answer: Its inhibition in vivo at 30 mg/kg is over 50%.

Question: What about the IC50 [2, 4] of the same molecule?
Answer: Its IC50 is under 10 nM.
